SMILES strings stand for the structures.

A short description of the data set: gradient 5% acetonitrile 3 min, to 50% in 2 min, to 85% in 15 min, held 3 min, 100 µL/min. The conditions noted are these: column: Zorbax Extend-C18 2.1 x 50 mm; eluents: water / acetonitrile, 0.1% formic acid. The essentials: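 Retention times of pure standards were taken from adduct peaks that were selected by computer and manually inspected. Over 3 months, mixtures of ~100 molecules were run by HPLC–quadrupole time-of-flight mass spectrometry in positive and negative ionization mode. The Zorbax Extend-C18 column (2.1 × 50 mm, 1.8 μm) ran at 100 μL/min in water and acetonitrile, each containing 0.1% formic acid, with 40 μL dead volume and 900 μL dwell volume.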
In turn, `O=C(COc1ccc(-c2cnc3ccccc3n2)cc1)Nc1ccccn1` gave an RP-LC retention time of 852 s. `CC(C)c1ccc(CNC(=O)c2ccc3ncnc(N4CCOCC4)c3c2)cc1` had an RP-LC retention time of 708 s. Then `Cc1ccn2cc(-c3ccc(NC(=O)/C=C/c4ccccc4)cc3)nc2n1`, with 673 s. With `CCCc1nc(-c2c(C)cc(C)nc2NC(=O)c2ccccc2Br)no1`, the RP-LC retention time was 927 s. Then `CCCN1CCn2cc(S(=O)(=O)Nc3ccc(C)cc3)cc2C1=O`, with 771 s; and `Cc1cc(N2CCN(c3ccccn3)CC2)n2nc(C(F)(F)F)c(-c3ccc(Cl)cc3)c2n1`, with 1010 s. `CSc1ncn(-c2nc(N(C)C)nc(N3CCCCCC3)n2)n1` gave an RP-LC retention time of 1200 s.

The molecule `O=C(COc1ccc(F)cc1)N1CCN(Cc2noc3ccccc23)CC1` had an RP-LC retention time of 726 s. The result for `CCN1CCN(C2CCN(C(=O)c3cc(F)ccc3Cl)CC2)C1=O` reads 705 s; that for `Cc1cc(C)n(-c2nc(CC(=O)N3CCN(c4ccc(F)cc4)CC3)cs2)n1`, 968 s; that for `Cc1noc(-c2cc(=O)n(CC(=O)NC3CCCC3)c3ccccc23)n1`, 782 s. `Cc1ccsc1C(=O)NC1(c2nc(-c3cnccn3)no2)CCCCC1` came in with an RP-LC retention time of 806 s. In the case of `COc1ccc(OCc2nnc3sc(-c4ccc(OC)cc4OC)nn23)cc1`, the RP-LC retention time is 989 s. The result for `O=C(NCCS(=O)(=O)N1CCN(c2ncccn2)CC1)c1cccs1` reads 663 s; that for `COc1ccc(-c2nnc(N3CCC(C(=O)N4CCN(C)CC4)CC3)o2)cc1`, 582 s; that for `COCCCNC(=O)C1CCCN(c2nnc3ccccn23)C1` (stereo not given), 529 s. The molecule `COc1ccc(-c2nnc(Cc3nc(-c4ccc(F)cc4)no3)o2)cc1OC` showed an RP-LC retention time of 907 s. `O=C(CCn1cnc2c(cnn2-c2ccccc2)c1=O)N1CCN(C(=O)c2ccco2)CC1`: the RP-LC retention time was 653 s. In turn, `Cc1cc(NC(C)C)n2nc(-c3ccc(C(C)(C)C)cc3)nc2n1` came in with an RP-LC retention time of 988 s. Then `Cc1sc(-c2nnc(C3CC3)o2)cc1NC(=O)Cc1ccc(F)cc1`, with 956 s. In turn, `Cc1ccc(-c2nc(CCN(C)C(=O)NCCc3ccccc3)no2)cc1` showed an RP-LC retention time of 956 s.

As to `O=C(CCCc1nnc(C(=O)Nc2ccccc2)s1)NCCc1c[nH]c2ccc(Cl)cc12`, the RP-LC retention time came out at 889 s. Molecule `CCN1CCN(CCNC(=O)c2cc3n(n2)CCCN(Cc2ccc(C)cc2)C3=O)CC1` yielded an RP-LC retention time of 614 s. Then `Cc1ccc(NC(=O)Cn2nc3n(c2=O)CCCC3)cc1F`, with 677 s; and `COc1ccc(-c2nc3n(c2C(=O)Nc2nc(-c4ccccc4)cs2)CCS3(=O)=O)cc1`, with 1010 s. The result for `O=C1NCCCCCCN(C(=O)c2cc(CN3CCOCC3)on2)[C@H]2CCCC[C@@H]12` reads 621 s; that for `CC(C)N1CCN(C(=O)c2cn(-c3cc(N4CCSCC4)ncn3)cn2)CC1`, 596 s. Then `Cc1csc(-c2cc(S(=O)(=O)Nc3cc(Cl)ccc3C)c(C)s2)n1`, with 1110 s. In turn, `COc1ccc(S(=O)(=O)N2CCCC(C(=O)NCCCOC(C)C)C2)cc1C` (stereo not given) returned an RP-LC retention time of 877 s. Then `COc1ccc(-n2cc(C(=O)NCCc3c[nH]c4ccc(F)cc34)nn2)cc1`, with 871 s. As to `Nc1ccc(-c2nc3nc(N)nc(N)c3nc2-c2ccc(N)cc2)cc1`, the RP-LC retention time stood at 596 s. The result for `CN(CCc1noc(-c2ccccc2)n1)C(=O)Nc1ccccc1Cl` reads 943 s. In the case of `CCOCC(=O)N1CCCN(C2=NS(=O)(=O)C(c3ccc(C)cc3)=C2C)CC1`, the RP-LC retention time stood at 752 s. Then `CN(CC1CCOC1)C(=O)c1ccc(F)c(Cl)c1` (stereo not given), with 724 s; and `O=C(Cc1ccc([N+](=O)[O-])cc1)NCc1nnnn1-c1ccc(F)cc1`, with 701 s. With `COc1ccc(OC)c(NC(=O)COc2nc(C)nc3ccccc23)c1`, the RP-LC retention time amounted to 725 s. For the molecule `Cc1ccccc1OCC(=O)Nc1cnn(C)c(=O)c1N1CCOCC1`, the RP-LC retention time was 810 s. As for `CCOC(=O)Cn1c(C2CCCN2C(=O)CC)nc2ccccc21` (stereo not given), the RP-LC retention time was 613 s. Molecule `CCC(=O)N1CCc2cc(N3CC(C(=O)Nc4ccc(C(C)=O)cc4)CC3=O)ccc21` (stereo not given) displayed an RP-LC retention time of 717 s. Then `O=c1c2ccccc2n(Cc2nc(-c3ccc(Cl)cc3)no2)c(=O)n1CC1CCCO1` (stereo not given), with 1080 s.

Molecule `COc1ccc(NC(=O)Cn2c(=O)n(-c3ccccc3)c(=O)c3c2cc(C)n3C)cc1` displayed an RP-LC retention time of 766 s. Then `Cc1cc(F)ccc1NC(=O)Cn1c(N)nc(C)c(C)c1=O`, with 617 s. With `COc1ccc(-c2c(C(=O)NCc3cccs3)nc3ccccn23)cc1`, the RP-LC retention time stood at 828 s.

Turning to `Cc1ccn(C(=O)c2ccc(NC(=O)CC(C)C)cc2)n1`, the RP-LC retention time was determined as 804 s. For the molecule `CCOc1cccc(-c2noc(CCn3nc(-c4ccc(Cl)cc4)ccc3=O)n2)c1`, the RP-LC retention time is 1130 s.

For `CN(CC1(C)CCOCC1)S(=O)(=O)c1cccc(F)c1`, the RP-LC retention time amounted to 895 s. Molecule `Cc1ccccc1NC(=O)N1C[C@@H]2CN(S(=O)(=O)c3ccc(F)cc3)C[C@H](C1)O2` had an RP-LC retention time of 786 s. With `COc1ccc(C(=O)c2cnc3cc4c(cc3c2N2CCN(C)CC2)OCCO4)cc1`, the RP-LC retention time turned out to be 560 s. The result for `COc1cccc(Cn2cnc3c(-c4cccc(F)c4)csc3c2=O)c1` reads 1050 s; that for `COc1cccc(CNC(=O)C2(C)CCCN(C(=O)Nc3ccc(Br)cc3)C2)c1` (stereo not given), 969 s. Regarding `C[C@H](NC(=O)C(C)(C)Oc1ccc(C(F)(F)F)cn1)[C@@H](Cc1ccc(Cl)cc1)c1cccc(C#N)c1`, the RP-LC retention time is 1320 s. Then `Cc1nc2c(ccc3nc(NC(=O)c4ccccc4Br)sc32)s1`, with 869 s; and `O=C(Nc1sc2c(c1CN1CCN(c3ccccn3)CC1)CCCC2)c1ccco1`, with 671 s. The result for `Cc1ccc(-c2nnc(-c3cccc(S(=O)(=O)N4CCN(C)CC4)c3)o2)cc1` reads 679 s; that for `COc1cc([C@@H]2c3cc4c(cc3[C@H](O)[C@@H](CO)[C@@H]2C(=O)NC2CCCCC2)OCO4)cc(OC)c1OC`, 736 s. Then `CCN1c2cc(F)ccc2C(=O)NC12CCN(C(=O)c1cccc(C)c1)CC2`, with 824 s. As to `O=C(COc1ccc(F)cc1)Nc1ccc(-c2nc(-c3ccc(F)cc3)no2)cc1`, the RP-LC retention time was determined as 1220 s.

In turn, `CCN(CC)C(C)CN1c2ccccc2Sc2ccccc21` (stereo not given) registered an RP-LC retention time of 813 s. For `O=S(=O)(c1cccc2nsnc12)N1CCCC1c1noc(CO)n1` (stereo not given), the RP-LC retention time was determined as 682 s. Regarding `C=CCN(CC=C)c1nc(-c2ccc(Cl)cc2)nc2ccccc12`, the RP-LC retention time came out at 936 s.

For `CN(C)c1ncncc1N1CCC(C(=O)N2CCN(c3cccc(Cl)c3)CC2)CC1`, the RP-LC retention time turned out to be 722 s. Then `O=C(Nc1ccccc1)c1cccc(N2CC(C(=O)Nc3cccc(Cl)c3)CC2=O)c1` (stereo not given), with 912 s. Molecule `CSc1ccc(CNC(=O)C2CCCN(c3nccc(C)n3)C2)cc1` (stereo not given) came in with an RP-LC retention time of 763 s.

With `Cc1nn(-c2nc(CC(=O)N3CCOCC3)cs2)c(C)c1Cl`, the RP-LC retention time is 842 s. In turn, `COc1cccc(S(=O)(=O)N2CCC(c3noc(-c4ccccn4)n3)C2)c1` (stereo not given) registered an RP-LC retention time of 774 s. Consider `Cc1ccn2cc(-c3ccc(NC(=O)c4cccc([N+](=O)[O-])c4)cc3)nc2n1`, for which the RP-LC retention time worked out at 652 s. The result for `COCCN(CC1(C)CCOCC1)C(=O)NCc1cccc(F)c1` reads 768 s; that for `COc1ccccc1-c1noc(C2CCCN2C(=O)c2ccc(NC(C)=O)cc2)n1` (stereo not given), 713 s; that for `CCn1cc(CC(=O)NCc2ccc(F)cc2F)c2cccnc21`, 723 s.

With `Cc1cc(NC(=O)CSc2nnc(NC(=O)c3snnc3C)s2)no1`, the RP-LC retention time was 666 s. `O=C(Nc1ccc(F)cc1F)c1c(O)c2cccnc2n(-c2ccccc2)c1=O` gave an RP-LC retention time of 1250 s.

`Cc1ccc(-c2noc(C3CCCN3S(=O)(=O)c3ccc(Br)s3)n2)cc1` (stereo not given) registered an RP-LC retention time of 1220 s. The result for `c1ccc(-n2nnc(-c3noc(-c4ccncc4)n3)c2-c2ccncc2)cc1` reads 732 s; that for `CCN(CC)CCNS(=O)(=O)c1cc(-c2cc(C)[nH]n2)sc1C`, 589 s; that for `CCOC(=O)c1cccc(NC(=O)c2sccc2S(=O)(=O)N(C)c2ccc(OCC)cc2)c1`, 1220 s. Then `Cn1ccc2ccn(CC(=O)Nc3ccc(Br)cc3)c(=O)c21`, with 795 s; and `CCCC(=O)N1CCCn2nc(-c3ccncc3)cc2C1`, with 577 s; and `CCC(C)NC(=O)Cn1cnc2nc(N3CCC(C(=O)NC4CC4)CC3)sc2c1=O` (stereo not given), with 1140 s. The result for `Cn1nc(N)c2ncc(C(Cl)(Cl)Cl)nc21` reads 876 s. `O=C(Cc1cccc(Cl)c1)NC1CCN(c2cc(-c3ccc(F)cc3)[nH]n2)C1` (stereo not given) returned an RP-LC retention time of 741 s.

These data come from the METLIN SMRT retention time set (Domingo-Almenara et al. 2019).
